Columns and labels:
PC-3 prostate cell line = assay: Cytotoxicity against PC3 prostate cancer cell line; settings: for IC50(cp)/IC50(tx) PC3: ratio of compound IC50 to Taxol IC50, PC3
[1] = system: A2780 ovarian cancer cell line; assay: Cytotoxicity against A2780 ovarian cancer cell line; settings: for IC50(cp)/IC50(tx) A2780: ratio of compound IC50 to Taxol IC50, A2780; for Cytotoxicity (IC50, μg/ml) A2780: Example 2, A2780
purified tubulin = settings: for EC50: read-out: ED50, Tb polymerization, Tubulin concentration 5 μM
[2] = system: Taxol binding site on crosslinked microtubules (polymerized tubulin); assay: Competition binding with fluorescent Taxol N-AB-PT; settings: for Inhibit binding F-Taxol: 10 μM Taxol or Taxoid, 5 μM N-AB-PT, 5 μM crosslinked microtubules
Description: Competition Binding Experiments. The relative affinities of Taxol and derivatives for polymerized tubulin were assessed by competition assays. Crosslinked microtubules were prepared in glycerol assembly buffer (10 mM phosphate, 1 mM EGTA, 0.1 mM GTP 3.4 M glycerol, pH 6.9) as described by Andreu and Barasoain. Prior to use, the crosslinked microtubules were dialyzed against PME buffer for 16-18 hr. Crosslinked microtubules (5 μM) and the fluorescent Taxol derivative N-AB-PT (15, 5 μM) in PME buffer were incubated for 20 min at room temperature with 10 μM of Taxol or the Taxoid. The fluorescence emission intensity at 412 nm of each sample was recorded using a Jobin-Yvon Horiba Fluoromax-3 spectrofluorometer in a 2 mm×10 mm quartz cell (1ex=320 nm) and compared to the emission intensity of the system in the absence of competitor.
For the fall competition experiment, microtubules, N-AB-PT and varying concentrations of Taxol or 13b (0-30 μM) were treated in the same manner and their emission intensities were measured. The full competition experiment was repeated using pure tubulin assembled by N-AB-PT and identical results were obtained (data not shown).

GDP-tubulin = assay: Critical concentration determination of tubulin assembly; type: biochemical; settings: Taxoid concentration 10 μM; 37° C., PME buffer, 4% DMSO
Description: Critical Concentration Determination. The critical concentration of tubulin in the presence of 10 μM Taxol or Taxol analog was determined from assembly experiments performed at 37° C. with GDP-tubulin in PME buffer (100 mM PIPES, 2 mM MgSO4, 1 mM EGTA, pH=6.90) containing 4% DMSO. The extent of assembly was measured at different tubulin concentrations (0.5-6 μM) by light scattering (apparent absorption at 350 nm). Critical concentrations were calculated from the x-intercepts of plots of apparent A350 nm VS. tubulin concentration.

SMILES | cytotoxicity against PC3 in words, compared with PTX/Taxol (PC-3 prostate cell line) | cytotoxicity against A2780 in words, compared with PTX/Taxol or related analogs ([1]; A2780) | tubulin polymerization activity in words, compared to PTX (purified tubulin) | other results
C=CC(=O)O[C@@]12CO[C@@H]1C[C@H](O)[C@@]1(C)C(=O)[C@H](OC(C)=O)C3=C(C)[C@@H](OC(=O)[C@H](O)[C@@H](NC(=O)c4ccccc4)c4ccccc4O/C=C\C)C[C@@](O)([C@@H](OC(=O)c4ccccc4)C12)C3(C)C (some centres unmarked) [Compound 12b] | over two orders of magnitude less cytotoxic | over three orders of magnitude less cytotoxic | – | IC50(cp)/IC50(tx) PC3 (PC-3 prostate cell line): 150; IC50(cp)/IC50(tx) A2780 [1]: 1190; EC50 (purified tubulin): 1020 ± 370 nM
CC(=O)O[C@H]1C(=O)[C@@]2(C)[C@@H]3[C@H](OC(=O)c4ccccc4)[C@]4(O)C[C@H](OC(=O)[C@H](O)[C@@H](NC(=O)c5ccccc5)c5ccccc5C/C=C\C(=O)O[C@]35CO[C@@H]5C[C@@H]2O)C(C)=C1C4(C)C [Compound 13a] | slightly more cytotoxic than Taxol | approximately twenty times more potent than Taxol | – | IC50(cp)/IC50(tx) PC3 (PC-3 prostate cell line): 0.69; Inhibit binding F-Taxol [2]: 72%; fold more potent than previous best analog 15 ([1]; A2780): approximately 300 fold; IC50(cp)/IC50(tx) A2780 [1]: 0.045; EC50 (purified tubulin): 300 ± 90 nM; Critical Tb conc. (GDP-tubulin): 0.53 ± 0.07 µM
C=CCOc1ccccc1C(NC(=O)c1ccccc1)C(O)C(=O)OC1CC2(O)C(OC(=O)c3ccccc3)C3C4(OC(=O)C=C)COC4CC(O)C3(C)C(=O)C(OC(C)=O)C(=C1C)C2(C)C (centres unmarked) [Compound 13c] | almost inactive | almost inactive | – | –
C=CCCC(=O)OC12COC1CC(O)C1(C)C(=O)C(OC(C)=O)C3=C(C)C(OC(=O)C(O)C(NC(=O)c4ccccc4)c4cccc(C=C)c4)CC(O)(C(OC(=O)c4ccccc4)C21)C3(C)C (centres unmarked) [Compound 13h] | – | better cytotoxicites than their macrocyclic counter parts | – | –
C=CCCC(=O)OC12COC1CC(O)C1(C)C(=O)C(OC(C)=O)C3=C(C)C(OC(=O)C(O)C(NC(=O)c4ccccc4)c4ccccc4OCC=C)CC(O)(C(OC(=O)c4ccccc4)C21)C3(C)C (centres unmarked) [Compound 13i] | – | better cytotoxicites than their macrocyclic counter parts | – | –
CC(=O)O[C@H]1C(=O)[C@@]2(C)[C@@H]3[C@H](OC(=O)c4ccccc4)[C@]4(O)C[C@H](OC(=O)[C@H](O)[C@@H](NC(=O)c5ccccc5)c5ccccc5/C=C/CC(=O)O[C@]35CO[C@@H]5C[C@@H]2O)C(C)=C1C4(C)C [Compound 15J] | – | – | superior to PTX | fold more cytotoxicity compared to PTX against PC3 (PC-3 prostate cell line; PC3 cell line): 2 fold; inhibition of binding of fluorescent taxol, compared with paclitaxel, in words [2]: better than paclitaxel; fold more cytotoxicity compared to PTX ([1]; A2780 cell line, cell line not named): 6 fold
CC(=O)O[C@H]1C(=O)[C@@]2(C)[C@@H]3[C@H](OC(=O)c4ccccc4)[C@]4(O)C[C@H](OC(=O)[C@H](O)[C@@H](NC(=O)c5ccccc5)c5ccccc5OC/C=C/C(=O)O[C@]35CO[C@@H]5C[C@@H]2O)C(C)=C1C4(C)C [Compound 15b] | two fold more cytotoxicity than PTX | more or less equal cytotoxicity | superior to PTX | inhibition of binding of fluorescent taxol, compared with paclitaxel, in words [2]: better than paclitaxel; competition experiment with fluorescent Taxol, compared with Taxol/PTX ([2]; N-AB-PT 5 μM, increasing competitor (0-30 μM), FIG. 14): identical in all respect to PTX
CC(=O)O[C@H]1C(=O)[C@@]2(C)[C@@H]3[C@H](OC(=O)c4ccccc4)[C@]4(O)C[C@H](OC(=O)[C@H](O)[C@@H](NC(=O)c5ccccc5)c5ccccc5OCC/C=C/C(=O)O[C@]35CO[C@@H]5C[C@@H]2O)C(C)=C1C4(C)C [Compound 15c] | more or less equal cytotoxicity | more or less equal cytotoxicity | – | –
CC(=O)O[C@H]1C(=O)[C@@]2(C)[C@@H]3[C@H](OC(=O)c4ccccc4)[C@]4(O)C[C@H](OC(=O)[C@H](O)[C@@H](NC(=O)c5ccccc5)c5cccc(c5)OC/C=C\CCC(=O)O[C@]35CO[C@@H]5C[C@@H]2O)C(C)=C1C4(C)C [Compound 15e] | – | – | comparable | –
CC(=O)O[C@H]1C(=O)[C@@]2(C)[C@@H]3[C@H](OC(=O)c4ccccc4)[C@]4(O)C[C@H](OC(=O)[C@H](O)[C@@H](NC(=O)c5ccccc5)c5cccc(c5)/C=C\CCC(=O)O[C@]35CO[C@@H]5C[C@@H]2O)C(C)=C1C4(C)C [Compound 15f] | – | – | comparable | –
CC(=O)O[C@H]1C(=O)[C@@]2(C)[C@@H]3[C@H](OC(=O)c4ccccc4)[C@]4(O)C[C@H](OC(=O)[C@H](O)[C@@H](NC(=O)c5ccccc5)c5ccccc5OCCCC(=O)O[C@]35CO[C@@H]5C[C@@H]2O)C(C)=C1C4(C)C [Compound 16b] | more or less equal cytotoxicity | more or less equal cytotoxicity | superior to PTX | inhibition of binding of fluorescent taxol, compared with paclitaxel, in words [2]: better than paclitaxel
CC(=O)O[C@H]1C(=O)[C@@]2(C)[C@@H]3[C@H](OC(=O)c4ccccc4)[C@]4(O)C[C@H](OC(=O)[C@H](O)[C@@H](NC(=O)c5ccccc5)c5ccccc5OCCCCC(=O)O[C@]35CO[C@@H]5C[C@@H]2O)C(C)=C1C4(C)C [Compound 16c] | more or less equal cytotoxicity | more or less equal cytotoxicity | – | –
CC(=O)O[C@H]1C(=O)[C@@]2(C)[C@@H]3[C@H](OC(=O)c4ccccc4)[C@]4(O)C[C@H](OC(=O)[C@H](O)[C@@H](NC(=O)c5ccccc5)c5cccc(c5)OCCCCCC(=O)O[C@]35CO[C@@H]5C[C@@H]2O)C(C)=C1C4(C)C [Compound 16e] | – | much less than the unsaturated 15e and 15f | – | –
CC(=O)O[C@H]1C(=O)[C@@]2(C)[C@@H]3[C@H](OC(=O)c4ccccc4)[C@]4(O)C[C@H](OC(=O)[C@H](O)[C@@H](NC(=O)c5ccccc5)c5cccc(c5)CCCCC(=O)O[C@]35CO[C@@H]5C[C@@H]2O)C(C)=C1C4(C)C [Compound 16f] | – | much less than the unsaturated 15e and 15f | – | –
O=C1/C=C/COc2cccc(c2)[C@H](NC(=O)c2ccccc2)[C@@H](O)C(=O)OC2CC3CC(CO1)C(OC(=O)c1ccccc1)C(C3)C2 (some centres unmarked) [Compound 20b] | – | less active than 18 and 19 | – | Cytotoxicity (IC50, μg/ml) A2780 [1]: >100 µg/mL
CC(=O)O[C@H]1C(=O)[C@@]2(C)[C@H]([C@H](OC(=O)c3ccccc3)[C@]3(O)C[C@H](OC(=O)[C@H](O)[C@@H](NC(=O)c4ccccc4)c4ccccc4)C(C)=C1C3(C)C)[C@]1(OC(C)=O)CO[C@@H]1C[C@@H]2O [Taxol, Paclitaxel] | – | – | – | Inhibit binding F-Taxol [2]: 26%; Cytotoxicity (IC50, μg/ml) A2780 [1]: 0.02 µg/mL; EC50 (purified tubulin): 500 ± 140 nM; Critical Tb conc. (GDP-tubulin): 1.8 ± 0.30 µM
